{
  "source": "patent US8410044B2",
  "about": "“Bacitracin antibiotics” (Xellia Pharmaceuticals Aps, priority 2009, dated 2013)",
  "system": "Micrococcus luteus",
  "assay": "Potency (specific antibacterial activity): agar plate inhibition zones compared with Bacitracin Zinc standard",
  "format": "cell-based",
  "conditions": "calculated from potency of sample A and its 93% area-% content",
  "procedure": "Potency is the in vitro antibacterial activity. It can be measurered and expressed as IU/mg. The antibacterial activity of samples A, B′ and C′ (see Table 1) was measured. The specific antibacterial activity (listed here as IU/mg), often termed potency, was measured by comparing the antibacterial activity of the unknown sample with known (standard) samples. Specifically, a Bacitracin Zinc standard was dissolved and diluted to 2.0, 1.0, and 0.5 IU bacitracin/ml in 0.07 M phosphate buffer pH 6.0. These three standard solutions were added to agar plates inoculated with the test organism, Micrococcus luteus. The unknown samples were dissolved, diluted and added to the same plate as the standards. After 16-24 hours at 32-37 C, the inhibition zones were measured and the unknown samples were compared to the standards.",
  "note": "Where a SMILES comes first, the peptide text is derived from it. Bridges are numbered along the chain shown (N, C = ends). [ ]: non-standard residue; d: D form. The star is where a group is joined. X2 = CCC(C)C(N)C1=NC(C(=O)*)CS1; Orn = NCCC[CH](N)C(=O)O",
  "data": [
    {"smiles": "CCC(C)C(N)C1=NC(C(=O)NC(CC(C)C)C(=O)NC(CCC(=O)O)C(=O)NC(C(=O)NC2CCCCNC(=O)C(CC(N)=O)NC(=O)C(CC(=O)O)NC(=O)C(Cc3c[nH]cn3)NC(=O)C(Cc3ccccc3)NC(=O)C(C(C)CC)NC(=O)C(CCCN)NC2=O)C(C)CC)CS1", "note": "(stereo not shown) [Bacitracin A] (X2-LEIK[Orn]IFHDN; lactam 4-C; configuration not given here)", "values": [
      {"measurement": "specific antibacterial activity of Bacitracin A, calculated from sample A (93% Bacitracin A by HPLC at 254 nm)", "result": 77.4, "unit": "IU/mg"}
    ]}
  ]
}
